The values that follow come from US10323026B2, “Heterocyclic compound” (Takeda Pharmaceutical Company Limited, priority 2016, dated 2019).

In this assay the target is T1, His-hMAGL (recombinant polyhistidine tagged human MAGL protein) (Homo sapiens, UniProt Q99685).
T1 construct: polyhistidine (His) (N); made in house; host or cells: E. coli BL21(DE3)
T1 sequence (Q99685 1-303): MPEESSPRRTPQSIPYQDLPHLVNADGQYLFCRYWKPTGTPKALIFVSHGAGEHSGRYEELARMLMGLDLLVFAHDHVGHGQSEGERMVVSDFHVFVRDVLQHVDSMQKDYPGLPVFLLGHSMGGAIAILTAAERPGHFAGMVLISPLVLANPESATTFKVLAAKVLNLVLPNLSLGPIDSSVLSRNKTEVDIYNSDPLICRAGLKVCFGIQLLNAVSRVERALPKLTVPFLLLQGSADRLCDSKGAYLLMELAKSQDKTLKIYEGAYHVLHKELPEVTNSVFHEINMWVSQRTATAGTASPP
As to the kind of experiment: Measurement of MAGL inhibitory activity (RapidFire-mass spectrometry of arachidonic acid produced from 2-arachidonylglycerol). It is filed as biochemical. Particulars: test compound 10 μM, His-hMAGL, substrate 2-arachidonylglycerol, 60 min preincubation; for inhibition at 10 µM: read-out: % inhibition (10 μM). The protocol:
Furthermore, acetonitrile (50 μL) containing 3 μM arachidonic acid-d8 (Cayman Chemical Company) was added and the mixture was stirred.
The amount of arachidonic acid in the obtained enzyme reaction mixture was calculated by measuring by RapidFire-mass spectrometry and correcting by the amount of arachidonic acid-d8. High Throughput online solid phase extraction was performed using RapidFire 300™ system (Agilent Technologies, Inc.). Samples were loaded on SPE C4 cartridge (Agilent Technologies, Inc.) and desalted with 0.2 (v/v) % acetic acid (Wako Pure Chemical Industries, Ltd.) in ultrapure water/acetonitrile (70/30, v/v) at a flow rate of 1.5 mL/min, eluted at a flow rate of 0.5 mL/min with 0.2(v/v) % acetic acid dissolved in acetonitrile/ultrapure water (90/10, v/v), and injected into the mass spectrometry part. The injection needle was washed with ultrapure water (500 millisecond) and acetonitrile (500 millisecond) to minimize carry-over. […] The RapidFire300 system was controlled by RapidFire UI software version 3.6 (Agilent Technologies, Inc.).
The mass spectrometry of the resultant product was performed using API4000™ triple quadrupole mass spectrometer (AB SCIEX) equipped with an electrospray ion source (TurboIon Spray™) in a negative selected reaction monitoring (SRM) mode. The conditions of SRM are shown below. The parameters of the instrument were optimized as follows: capillary temperature 600° C., ion spray voltage −4.5 kV, collision gas 8, curtain gas 15 psi, ion source gas 1 60 psi, ion source gas 2 60 psi. The mass spectrometer was controlled by Analyst™ software version 1.5.1 (AB SCIEX). The peak area integration was analyzed using RapidFire integrator software version 3.6 (Agilent Technologies, Inc.).
MAGL inhibitory rate (%) was calculated according to the following calculation formula. (1-(arachidonic acid production amount of test compound addition group−arachidonic acid production amount of enzyme-free group)÷(arachidonic acid production amount of test compound-free group−arachidonic acid production amount of enzyme-free group))×100

Regarding `CC1(C2CCN(C(=O)[C@H]3C[C@]4(COC(=O)N4)C3)CC2)Cc2cc(F)ccc2O1` (some centres unmarked) [Example 4, (2s,4s)-2-((4-(5-fluoro-2-methyl-2,3-dihydro-1-benzofuran-2-yl)piperidin-1-yl)carbonyl)-7-oxa-5-azaspiro[3.4]octan-6-one], the inhibition at 10 µM came out at 100%.

Regarding `CC1(C2CCN(C(=O)[C@H]3C[C@]4(CCC(=O)N4)C3)CC2)Cc2cc(F)ccc2O1` (some centres unmarked) [Example 5, (2r,4s)-2-((4-(5-fluoro-2-methyl-2,3-dihydro-1-benzofuran-2-yl)piperidin-1-yl)carbonyl)-5-azaspiro[3.4]octan-6-one], the inhibition at 10 µM worked out at 100%.

Consider `O=C1N[C@]2(CO1)C[C@H](C(=O)N1CCC(C(F)(F)c3ccc(Cl)cc3Cl)CC1)C2` [Example 8, (2s,4s)-2-((4-((2,4-dichlorophenyl)(difluoro)methyl)piperidin-1-yl)carbonyl)-7-oxa-5-azaspiro[3.4]octan-6-one], for which the inhibition at 10 µM stood at 100%.

Take `O=C1N[C@]2(CO1)C[C@H](C(=O)N1CC(COc3ccc(C(F)(F)F)cc3F)C1)C2` [Example 9, (2s,4s)-2-((3-((2-fluoro-4-(trifluoromethyl)phenoxy)methyl)azetidin-1-yl)carbonyl)-7-oxa-5-azaspiro[3.4]octan-6-one]: the inhibition at 10 µM amounted to 100%.

As for `CC(Oc1ccc(C(F)(F)F)cc1F)C1CN(C(=O)[C@H]2C[C@]3(COC(=O)N3)C2)C1` (some centres unmarked) [Example 10, (2s,4s)-2-((3-(1-(2-fluoro-4-(trifluoromethyl)phenoxy)ethyl)azetidin-1-yl)carbonyl)-7-oxa-5-azaspiro[3.4]octan-6-one], the inhibition at 10 µM turned out to be 100%.

As for `CC(Oc1ccc(C(F)(F)F)cc1F)C1CN(C(=O)[C@H]2C[C@]3(COC(=O)N3)C2)C1` (some centres unmarked) [Example 13, (2s,4s)-2-((3-(1-(2-fluoro-4-(trifluoromethyl)phenoxy)ethyl)azetidin-1-yl)carbonyl)-7-oxa-5-azaspiro[3.4]octan-6-one], the “% inhibition (10 μM)” value was 100%.

In the case of `CC(Oc1ccc(C(F)(F)F)cc1F)C1CN(C(=O)[C@H]2C[C@]3(COC(=O)N3)C2)C1` (some centres unmarked) [Example 14, (2s,4s)-2-((3-(1-(2-fluoro-4-(trifluoromethyl)phenoxy)ethyl)azetidin-1-yl)carbonyl)-7-oxa-5-azaspiro[3.4]octan-6-one], the “% inhibition (10 μM)” value amounted to 100%.

As to `CC(Oc1ccc(F)cc1F)C1CCN(C(=O)[C@H]2C[C@]3(COC(=O)N3)C2)CC1` (some centres unmarked) [Example 15, (2s,4s)-2-((4-(1-(2,4-difluorophenoxy)ethyl)piperidin-1-yl)carbonyl)-7-oxa-5-azaspiro[3.4]octan-6-one], the inhibition at 10 µM was found to be 100%.

Take `CC1(C2CCN(C(=O)[C@H]3C[C@]4(COC(=O)N4)C3)CC2)Cc2cc(F)cc(F)c2O1` (some centres unmarked) [Example 16, (2s,4s)-2-((4-(5,7-difluoro-2-methyl-2,3-dihydro-1-benzofuran-2-yl)piperidin-1-yl)carbonyl)-7-oxa-5-azaspiro[3.4]octan-6-one]: the inhibition at 10 µM was found to be 100%.

As for `CC(Oc1ccc(Cl)cc1F)C1CCN(C(=O)[C@H]2C[C@]3(CCC(=O)N3)C2)CC1` (some centres unmarked) [Example 17, (2r,4s)-2-((4-(1-(4-chloro-2-fluorophenoxy)ethyl)piperidin-1-yl)carbonyl)-5-azaspiro[3.4]octan-6-one], the inhibition at 10 µM was 100%.

For the compound `CC(Oc1ccc(Cl)cc1F)C1CCN(C(=O)[C@H]2C[C@]3(COC(=O)N3)C2)CC1` (some centres unmarked) [Example 18, (2s,4s)-2-((4-(1-(4-chloro-2-fluorophenoxy)ethyl)piperidin-1-yl)carbonyl)-7-oxa-5-azaspiro[3.4]octan-6-one], the inhibition at 10 µM turned out to be 101%.

For `O=C1N[C@]2(CO1)C[C@H](C(=O)N1CCC(COc3ccc(C(F)(F)F)cc3Cl)CC1)C2` [Example 19, (2s,4s)-2-((4-((2-chloro-4-(trifluoromethyl)phenoxy)methyl)piperidin-1-yl)carbonyl)-7-oxa-5-azaspiro[3.4]octan-6-one], the inhibition at 10 µM came out at 101%.

`Cc1cc(F)ccc1OC(C)C1CCN(C(=O)[C@H]2C[C@]3(COC(=O)N3)C2)CC1` (some centres unmarked) [Example 20, (2s,4s)-2-((4-(1-(4-fluoro-2-methylphenoxy)ethyl)piperidin-1-yl)carbonyl)-7-oxa-5-azaspiro[3.4]octan-6-one]: the inhibition at 10 µM was found to be 100%.

With `CC(Oc1ccc(F)cc1F)C1CCN(C(=O)[C@H]2C[C@]3(COC(=O)N3)C2)CC1` (some centres unmarked) [Example 21, (2s,4s)-2-((4-(1-(2,4-difluorophenoxy)ethyl)piperidin-1-yl)carbonyl)-7-oxa-5-azaspiro[3.4]octan-6-one], the “% inhibition (10 μM)” value (10 µM) is recorded as 100%.

As for `CC(Oc1ccc(F)cc1F)C1CCN(C(=O)[C@H]2C[C@]3(COC(=O)N3)C2)CC1` (some centres unmarked) [Example 22, (2s,4s)-2-((4-(1-(2,4-difluorophenoxy)ethyl)piperidin-1-yl)carbonyl)-7-oxa-5-azaspiro[3.4]octan-6-one], the “% inhibition (10 μM)” value (10 µM) worked out at 101%.

Consider `Cc1ccc(OCC2CCN(C(=O)[C@H]3C[C@]4(COC(=O)N4)C3)CC2)c(F)c1` [Example 23, (2s,4s)-2-((4-((2-fluoro-4-methylphenoxy)methyl)piperidin-1-yl)carbonyl)-7-oxa-5-azaspiro[3.4]octan-6-one], for which the inhibition at 10 µM worked out at 100%.

As to `O=C1N[C@]2(CO1)C[C@H](C(=O)N1CCC(OCc3ccc(Cl)cc3Cl)CC1)C2` [Example 24, (2s,4s)-2-((4-((2,4-dichlorobenzyl)oxy)piperidin-1-yl)carbonyl)-7-oxa-5-azaspiro[3.4]octan-6-one], the inhibition at 10 µM was found to be 100%.

In the case of `O=C1COC[C@]2(C[C@H](C(=O)N3CCC(COc4ccc(F)cc4Cl)CC3)C2)N1` [Example 25, (2s,4s)-2-((4-((2-chloro-4-fluorophenoxy)methyl)piperidin-1-yl)carbonyl)-8-oxa-5-azaspiro[3.5]nonan-6-one], the inhibition at 10 µM worked out at 100%.

As to `O=C1N[C@]2(CO1)C[C@H](C(=O)N1CCC(COc3ccc(C(F)(F)F)cc3F)CC1)C2` [Example 26, (2s,4s)-2-((4-((2-fluoro-4-(trifluoromethyl)phenoxy)methyl)piperidin-1-yl)carbonyl)-7-oxa-5-azaspiro[3.4]octan-6-one], the inhibition at 10 µM came out at 101%.

Take `CC1(C2CCN(C(=O)[C@H]3C[C@]4(COC(=O)N4)C3)CC2)Cc2cc(F)cc(Cl)c2O1` (some centres unmarked) [Example 27, (2s,4s)-2-((4-(7-chloro-5-fluoro-2-methyl-2,3-dihydro-1-benzofuran-2-yl)piperidin-1-yl)carbonyl)-7-oxa-5-azaspiro[3.4]octan-6-one]: the inhibition at 10 µM is 101%.

Consider `Cc1ccc(OC(C)C2CCN(C(=O)[C@H]3C[C@]4(COC(=O)N4)C3)CC2)c(F)c1` (some centres unmarked) [Example 28, (2s,4s)-2-((4-(1-(2-fluoro-4-methylphenoxy)ethyl)piperidin-1-yl)carbonyl)-7-oxa-5-azaspiro[3.4]octan-6-one], for which the inhibition at 10 µM amounted to 100%.

`CC(Oc1ccc(Cl)cc1F)C1CCN(C(=O)[C@H]2C[C@]3(COC(=O)N3)C2)CC1` (some centres unmarked) [Example 31, (2s,4s)-2-((4-(1-(4-chloro-2-fluorophenoxy)ethyl)piperidin-1-yl)carbonyl)-7-oxa-5-azaspiro[3.4]octan-6-one]: the “% inhibition (10 μM)” value (10 µM) came out at 101%.

Regarding `CC(Oc1ccc(Cl)cc1F)C1CCN(C(=O)[C@H]2C[C@]3(COC(=O)N3)C2)CC1` (some centres unmarked) [Example 32, (2s,4s)-2-((4-(1-(4-chloro-2-fluorophenoxy)ethyl)piperidin-1-yl)carbonyl)-7-oxa-5-azaspiro[3.4]octan-6-one], the “% inhibition (10 μM)” value (10 µM) is given as 100%.
